According to PubChem BioAssay (NCI):
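These data come from cells grown in 96-well plates and exposed to compound for 48 hours at five concentrations. At the GI50, growth is halved. TGI: total growth inhibition.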

Assays:
Test in all cases: NCI tumour cell line growth inhibition, 48 h
[1] = tested on: KM12 colon
[2] = tested on: COLO 205 colon
[3] = tested on: SNB-19 CNS
[4] = tested on: HOP-92 NSCLC
[5] = tested on: MDA-MB-231 breast
[6] = tested on: MOLT-4 leukemia
[7] = tested on: HL-60(TB) leukemia
[8] = tested on: OVCAR-5 ovarian
[9] = tested on: TK-10 renal
[10] = tested on: A549 NSCLC

SMILES	GI50 [1] [µM]	TGI [1] [µM]	GI50 [2] [µM]	TGI [2] [µM]	GI50 [3] [µM]	TGI [3] [µM]	GI50 [4] [µM]	TGI [4] [µM]	GI50 [5] [µM]	TGI [5] [µM]	GI50 [6] [µM]	TGI [6] [µM]	GI50 [7] [µM]	TGI [7] [µM]	GI50 [8] [µM]	TGI [8] [µM]	GI50 [9] [µM]	TGI [9] [µM]	GI50 [10] [µM]	TGI [10] [µM]
COc1cc2c(N3CCN(C(=O)Nc4ccc(OC(C)C)cc4)CC3)ncnc2cc1OCCCN1CCCCC1	3.22	29.8	11.9	26.5	22.2	> 100	6.24	33.1	14.4	32.4	12.8	61.2	15.1	36.1	26.8	> 90.1	38.9	> 100	17.1	> 93.7
COc1cc(CNc2nc3cc(N)cc(N)c3nc2-c2ccccc2)cc(OC)c1	4.28	73.3	2.38	6.04	23.4	> 100	1.15	3.31	2.08	6.09	3.02	> 100	3.84	> 100	5.9	29.2	24.6	62.3	33.2	> 100
O=C(/C=C/C12c3ccccc3C(c3ccccc31)C1C(=O)NC(=O)C12)c1ccccn1 (stereo not drawn)	1.43	3.03	1.88	3.62	1.53	3.22	1.98	4.54	1.49	4.44	2.11	9.55	1.02	3.41	2.04	4.54	2.35	5.31	2.34	6.86
CCN1C(=S)N(CC)C2C1NC(=S)N2/N=C/C=C/c1ccccc1OC (stereo not drawn)	0.27	15.8	0.312	1.27	0.48	> 100	3.56	> 76.7	0.521	10.3	0.464	> 54.7	0.229	0.597	0.442	35.6	7.69	98.9	0.503	> 100
CCN(CC)Cc1cc(Nc2nc(NC3CCC(N(C)C)CC3)c3ccccc3n2)ccc1OC (stereo not drawn)	3.35	13.2	1.5	2.87	8.6	22.6	1.63	6.71	1.7	6.09	2.34	6.9	3.87	14.9	5	20.7	12	25.4	3.59	13.7
Cc1cccc(NC(=O)c2sc3nc4c(cc3c2N)C(=O)CCC4)c1	0.215	> 100	0.231		0.464	> 100	1.8	> 74.9	0.585	> 44.5	25	> 100	0.393	> 100		> 57.7	> 100	> 100	0.335	> 100
COc1ccc(OC)c(/C=C/c2nc(=S)n(-c3ccc(Cl)cc3)[nH]2)c1	4.03	> 100	12.4	68.4	12.7	> 100	3.56	> 100	14.5	> 100	7.74	> 100	3.57	> 100	70.3	> 100	25.8	> 100	9.07	> 100
CCCCCCN(CCCCCC)C(=S)N/N=C(\C)c1ccccn1		2.73		2.14		3.92		6.43		2.76		5.79		2.3		5.59		2.5		3.66
c1ccc(-c2[nH]ncc2-c2ccnc(-c3ccc(OCCn4ccnc4)cc3)c2)nc1	13.7	> 25	> 25	> 25	> 25	> 25	> 25	> 25	> 25	> 25	10	> 25	> 25	> 25	> 25	> 25	> 25	> 25	> 25	> 25
Cn1nccc1Nc1nccc(-c2ccn([C@H](CO)c3ccc(Cl)c(F)c3)c(=O)c2)n1	18.8	> 100	0.0649	16.7	27.6	> 100	1.36	40	5.96	> 100	24.4	> 92.2	1.89	30.4	2.55	> 100	24	> 100	36	> 100
COc1ccc(OC)c(NCC(=O)n2nc(/C=C\c3ccc(O)c(OC)c3)cc2/C=C\c2ccc(O)c(OC)c2)c1	1.81	4.92	2.11	4.27	2.62	10.3	4.76	53.8	3.02	> 100	1.11	9.21	0.989	5.05	2.35	5.54	4.66	30.1	3.4	33.1
O=C1Oc2ccccc2C(=O)/C1=C1/C=C(c2ccccc2)SS1		> 100		> 100		> 100		> 100		> 100		71.8		45.2		> 100		> 100		> 100
Cn1c([N+](=O)[O-])cnc1C=C1C(=O)c2ccccc2C1=O	11.1	32.7	4.83	15.9	15.1	44.5	1.65	6.1	2.72	10.1	3.68	17.6	2.27	6.08	6	18.7	7.07	21.8	12.2	41.3
O=C(Nc1ccc(N=C=S)cc1Cl)c1cc(Br)cc(Br)c1O		55.3		> 100		64.3		56		46.2		69.4		> 100		50.9		69.5		69.7
O=C1C=C[C@H](O)[C@@]2(CO)O[C@@H]12	12.1	24.5	1.84	3.55	18.9	48.9	4.77	14.6	15.5	30.1	2.99	16.5	2.65	8.3	15.6	29	16.1	29.8	23.7	> 60.1
CCN=c1sc2c(n1NC(=O)c1cc3ccc1CCc1ccc(cc1)CC3)C(=O)c1ccccc1C2=O	1.02	3.83	1.56	3.71	0.605	1.33	0.772	2.83	0.658	2.72	0.634	1.94	0.815	2.3	0.587	1.15	9.54	16.5	0.738	1.71
CCNc1nc(O)c(/C=C2\C=Nc3ncccc32)s1	3.05	12.4	3.54	13	3.6	> 100	1.08	> 100	4.17	> 100	3.21	12.6	2.53	10.2	2.37	> 100	2.78	95	16.5	> 100
